Columns and labels:
Assay type in all cases: in vivo
[1] = tested on: Beet Armyworm (Spodoptera exigua); assay: Bioassay on Beet Armyworm (BAW), 128-well diet tray assay; conditions: Spodoptera exigua, 168 h; 50 μg/cm^2 on artificial diet, second instar larvae, five to seven days; read-out: BAW % Control (or Mortality) rating
[2] = tested on: Cabbage Looper (Trichoplusia ni); assay: Bioassay on Cabbage Looper (CL), 128-well diet tray assay; conditions: 168 h, 50 μg/cm^2 on artificial diet, second instar larvae, five to seven days, read-out: CL % Control (or Mortality) rating
Method in brief: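 Percent mortality, averaged across eight replicate wells, after second-instar larvae (1–5 per well) fed for five to seven days on diet dosed at 50 μg/cm^2. Compound was applied in acetone-water 90:10 and dried; trays kept vented at 25° C under 14:10 photoperiod.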

[3] = tested on: Yellow Fever Mosquito (Aedes aegypti); conditions: about 1 day-old larvae, 3 days, scored on mortality
Method: Certain molecules disclosed in this document were tested against YFM using procedures described in the following paragraph. In the reporting of the results, the “GPA & YFM Rating Table” was used (See Table Section).
Master plates containing 400 μg of a molecule dissolved in 100 μL of dimethyl sulfoxide (DMSO) (equivalent to a 4000 ppm solution) are used. A master plate of assembled molecules contains 15 μL per well. To this plate, 135 μL of a 90:10 water/acetone mixture is added to each well. A robot (Biomek® NXP Laboratory Automation Workstation) is programmed to dispense 15 μL aspirations from the master plate into an empty 96-well shallow plate (“daughter” plate). There are 6 reps (“daughter” plates) created per master. The created “daughter” plates are then immediately infested with YFM larvae.
The day before plates are to be treated, mosquito eggs are placed in Millipore water containing liver powder to begin hatching (4 g. into 400 mL). After the “daughter” plates are created using the robot, they are infested with 220 μL of the liver powder/larval mosquito mixture (about 1 day-old larvae). After plates are infested with mosquito larvae, a non-evaporative lid is used to cover the plate to reduce drying. Plates are held at room temperature for 3 days prior to grading. After 3 days, each well is observed and scored based on mortality. The results are indicated in the table entitled “Table ABC: Biological Results” (See Table Section).

SMILES	mortality at 50 µg/cm2 [1] [%]	mortality at 50 µg/cm2 [2] [%]	YFM % Control (or Mortality) rating [3]
O=C(NNc1ncccn1)c1ccc(/C(F)=C/C(c2ccc(Br)c(Cl)c2)C(F)(F)F)cc1C(F)(F)F (stereo not drawn) [F16, (Z)-4-(3-(4-Bromo-3-chlorophenyl)-1,4,4,4-tetrafluorobut-1-en-1-yl)-N′-(pyrimidin-2-yl)-2-(trifluoromethyl)benzohydrazide]	50 to 100	50 to 100	A (80-100)
Cc1cc(F)ccc1NNC(=O)c1ccc(/C(F)=C/C(c2cc(Cl)c(Cl)c(Cl)c2)C(F)(F)F)cc1C(F)(F)F (stereo not drawn) [F35, (Z)—N′-(4-Fluoro-2-methylphenyl)-4-(1,4,4,4-tetrafluoro-3-(3,4,5-trichlorophenyl)but-1-en-1-yl)-2-(trifluoromethyl)benzohydrazide]	50 to 100	50 to 100	A (80-100)
CN(NC(=O)c1ccc(/C(F)=C/C(c2ccc(Br)c(C(F)(F)F)c2)C(F)(F)F)cc1C(F)(F)F)c1ncccn1 (stereo not drawn) [F39, (Z)-4-(3-(4-Bromo-3-(trifluoromethyl)phenyl)-1,4,4,4-tetrafluorobut-1-en-1-yl)-N′-methyl-N′-(pyrimidin-2-yl)-2-(trifluoromethyl)benzohydrazide]	50 to 100	50 to 100	A (80-100)
O=C(NNc1ccc(F)cc1)c1ccc(/C(F)=C/C(c2cc(Cl)c(Cl)c(Cl)c2)C(F)(F)F)cc1C(F)(F)F (stereo not drawn) [F52]	50 to 100	50 to 100	A (80-100)
O=C(NNCc1ccccc1)c1ccc(/C(F)=C/C(c2cc(Cl)c(Cl)c(Cl)c2)C(F)(F)F)cc1C(F)(F)F (stereo not drawn) [F54, (Z)—N′-Benzyl-4-(1,4,4,4-tetrafluoro-3-(3,4,5-trichlorophenyl)but-1-en-1-yl)-2-(trifluoromethyl)benzohydrazide]	50 to 100	50 to 100	A (80-100)
O=C(NNc1ncccn1)c1ccc(/C(F)=C/C(c2cc(Cl)cc(Cl)c2)C(F)(F)F)cc1C(F)(F)F (stereo not drawn) [F56, (Z)-4-(3-(3,5-Dichlorophenyl)-1,4,4,4-tetrafluorobut-1-en-1-yl)-N′-(pyrimidin-2-yl)-2-(trifluoromethyl)benzohydrazide]	50 to 100	50 to 100	A (80-100)
O=C(NNc1ncccn1)c1ccc(/C(F)=C/C(c2ccc(Br)c(C(F)(F)F)c2)C(F)(F)F)cc1C(F)(F)F (stereo not drawn) [F78, (Z)-4-(3-(4-Bromo-3-(trifluoromethyl)phenyl)-1,4,4,4-tetrafluorobut-1-en-1-yl)-N′-(pyrimidin-2-yl)-2-(trifluoromethyl)benzohydrazide]	50 to 100	50 to 100	A (80-100)
CN(NC(=O)c1ccc(/C(F)=C/C(c2cc(Cl)c(Cl)c(Cl)c2)C(F)(F)F)cc1C(F)(F)F)c1ccc(C#N)cn1 (stereo not drawn) [F82, (Z)—N′-(5-Cyanopyridin-2-yl)-N′-methyl-4-(1,4,4,4-tetrafluoro-3-(3,4,5-trichlorophenyl)but-1-en-1-yl)-2-(trifluoromethyl)benzohydrazide]	50 to 100	50 to 100	A (80-100)
O=C(NNc1nnn[nH]1)c1ccc(/C(F)=C/C(c2cc(Cl)c(Cl)c(Cl)c2)C(F)(F)F)cc1C(F)(F)F (stereo not drawn) [F95, (Z)-4-(1,4,4,4-Tetrafluoro-3-(3,4,5-trichlorophenyl)but-1-en-1-yl)-N′-(1H-tetrazol-5-yl)-2-(trifluoromethyl)benzohydrazide]	50 to 100	50 to 100	A (80-100)
O=C(NNc1ncccc1Cl)c1ccc(/C(F)=C/C(c2cc(Cl)c(Cl)c(Cl)c2)C(F)(F)F)cc1C(F)(F)F (stereo not drawn) [F99, (Z)—N′-(3-Chloropyridin-2-yl)-4-(1,4,4,4-tetrafluoro-3-(3,4,5-trichlorophenyl)but-1-en-1-yl)-2-(trifluoromethyl)benzohydrazide]	50 to 100	50 to 100	A (80-100)
N#Cc1cccc(NNC(=O)c2ccc(/C(F)=C/C(c3cc(Cl)c(Cl)c(Cl)c3)C(F)(F)F)cc2C(F)(F)F)c1 (stereo not drawn) [F100, (Z)—N′-(3-Cyanophenyl)-4-(1,4,4,4-tetrafluoro-3-(3,4,5-trichlorophenyl)but-1-en-1-yl)-2-(trifluoromethyl)benzohydrazide]	50 to 100	50 to 100	A (80-100)
CN(NC(=O)c1ccc(/C(F)=C/C(c2cc(Cl)c(Cl)c(Cl)c2)C(F)(F)F)cc1Br)c1ncccn1 (stereo not drawn) [F102, (Z)-2-Bromo-N′-methyl-N′-(pyrimidin-2-yl)-4-(1,4,4,4-tetrafluoro-3-(3,4,5-trichlorophenyl)but-1-en-1-yl)benzohydrazide]	50 to 100	50 to 100	A (80-100)
Cc1csc(N(N)C(=O)c2ccc(/C(F)=C/C(c3cc(Cl)c(Cl)c(Cl)c3)C(F)(F)F)cc2C(F)(F)F)n1 (stereo not drawn) [F109, (Z)—N-(4-Methylthiazol-2-yl)-4-(1,4,4,4-tetrafluoro-3-(3,4,5-trichlorophenyl)but-1-en-1-yl)-2-(trifluoromethyl)benzohydrazide]	50 to 100	50 to 100	A (80-100)
N#Cc1ccc(NNC(=O)c2ccc(/C(F)=C/C(c3cc(Cl)c(Cl)c(Cl)c3)C(F)(F)F)cc2C(F)(F)F)cc1 (stereo not drawn) [F111, (Z)—N′-(4-Cyanophenyl)-4-(1,4,4,4-tetrafluoro-3-(3,4,5-trichlorophenyl)but-1-en-1-yl)-2-(trifluoromethyl)benzohydrazide]	50 to 100	50 to 100	A (80-100)
O=C(NNc1ncccn1)c1ccc(/C(F)=C/C(c2ccc(Cl)c(Cl)c2)C(F)(F)F)cc1C(F)(F)F (stereo not drawn) [F117]	50 to 100	50 to 100	A (80-100)
O=C(NN1CCS(=O)(=O)CC1)c1ccc(/C(F)=C/C(c2cc(Cl)c(Cl)c(Cl)c2)C(F)(F)F)cc1C(F)(F)F (stereo not drawn) [F122, (Z)—N-(1,1-dioxidothiomorpholino)-4-(1,4,4,4-tetrafluoro-3-(3,4,5-trichlorophenyl)but-1-en-1-yl)-2-(trifluoromethyl)benzamide]	50 to 100	50 to 100	D (No activity noticed in this bioassay)
COc1ccc(NNC(=O)c2ccc(/C(F)=C/C(c3cc(Cl)c(Cl)c(Cl)c3)C(F)(F)F)cc2C(F)(F)F)cc1 (stereo not drawn) [F126, (Z)—N′-(4-Methoxyphenyl)-4-(1,4,4,4-tetrafluoro-3-(3,4,5-trichlorophenyl)but-1-en-1-yl)-2-(trifluoromethyl)benzohydrazide]	50 to 100	50 to 100	A (80-100)
O=C(NNc1ncccn1)c1ccc(/C(F)=C/C(c2cc(Cl)c(Cl)c(Cl)c2)C(F)(F)F)cc1Br (stereo not drawn) [F128, (Z)-2-Bromo-N′-(pyrimidin-2-yl)-4-(1,4,4,4-tetrafluoro-3-(3,4,5-trichlorophenyl)but-1-en-1-yl)benzohydrazide]	50 to 100	50 to 100	A (80-100)
CCN(NC(=O)c1ccc(/C(F)=C/C(c2cc(Cl)c(Cl)c(Cl)c2)C(F)(F)F)cc1C(F)(F)F)c1ncccn1 (stereo not drawn) [F130, (Z)—N′-Ethyl-N′-(pyrimidin-2-yl)-4-(1,4,4,4-tetrafluoro-3-(3,4,5-trichlorophenyl)but-1-en-1-yl)-2-(trifluoromethyl)benzohydrazide]	50 to 100	50 to 100	A (80-100)
O=C(NNc1ccccc1)c1ccc(/C(F)=C/C(c2cc(Cl)c(Cl)c(Cl)c2)C(F)(F)F)cc1C(F)(F)F (stereo not drawn) [F133, (Z)—N′-Phenyl-4-(1,4,4,4-tetrafluoro-3-(3,4,5-trichlorophenyl)but-1-en-1-yl)-2-(trifluoromethyl)benzohydrazide]	50 to 100	50 to 100	A (80-100)
O=C(NNc1cc(F)ccc1F)c1ccc(/C(F)=C/C(c2cc(Cl)c(Cl)c(Cl)c2)C(F)(F)F)cc1C(F)(F)F (stereo not drawn) [F134, (Z)—N′-(2,5-Difluorophenyl)-4-(1,4,4,4-tetrafluoro-3-(3,4,5-trichlorophenyl)but-1-en-1-yl)-2-(trifluoromethyl)benzohydrazide]	50 to 100	50 to 100	A (80-100)
C#CCN(NC(=O)c1ccc(/C(F)=C/C(c2cc(Cl)c(Cl)c(Cl)c2)C(F)(F)F)cc1C)c1ncccn1 (stereo not drawn) [F148, (Z)-2-Methyl-N′-(prop-2-yn-1-yl)-N′-(pyrimidin-2-yl)-4-(1,4,4,4-tetrafluoro-3-(3,4,5-trichlorophenyl)but-1-en-1-yl)benzohydrazide]	50 to 100	50 to 100	A (80-100)

From patent publication US10638756B2, “Molecules having pesticidal utility, and intermediates, compositions, and processes, related thereto” (Dow AgroSciences LLC, priority 2017, dated 2020)
